Experimental data as given in ChEMBL document CHEMBL1201862, “PubChem BioAssay data set” (2004).
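Cells were grown in 96-well plates and exposed to each compound for 48 hours at five concentrations; endpoints were interpolated linearly between bracketing concentrations, or set to the highest concentration if not reached. Here, GI50 denotes the concentration required for 50% inhibition of growth.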 Active and inactive are the calls of the source. Rule as the data show it: active = GI50 up to about 1.1 µM and inactive = higher.

How the values were obtained:
Assay in all cases: NCI tumour cell line growth inhibition, 48 h
SK-MEL-5 = tested on: SK-MEL-5
DU-145 = tested on: DU-145
OVCAR-4 = tested on: OVCAR-4
MOLT-4 = tested on: MOLT-4
Malme-3M = tested on: Malme-3M
KM12 = tested on: KM12
U-251 = tested on: U-251
SNB-19 = tested on: SNB-19
NCI-H522 = tested on: NCI-H522
SF-295 = tested on: SF-295
PC-3 = tested on: PC-3
HL-60 = tested on: HL-60
MDA-MB-231 = tested on: MDA-MB-231
TK-10 = tested on: TK-10
RPMI-8226 = tested on: RPMI-8226
SF-268 = tested on: SF-268
DMS-273 = tested on: DMS-273
XF498 = tested on: XF498
LXFL 529 = tested on: LXFL 529

Measured: GI50

O=C1c2cc3c(cc2CC1Cc1ccc2c(c1)CCC2)CCC3 (centres undefined)
inactive: SK-MEL-5 57.8 µM | DU-145 54 µM | OVCAR-4 82.6 µM | MOLT-4 36.6 µM | Malme-3M 79.6 µM | KM12 > 100 µM | U-251 37.3 µM | SNB-19 34.3 µM | NCI-H522 24.1 µM | SF-295 23.5 µM | PC-3 72.9 µM | HL-60 66.2 µM | MDA-MB-231 26.4 µM | TK-10 > 100 µM | RPMI-8226 40.5 µM | SF-268 35.6 µM

C=CCCC(On1c(-c2ccc(Cl)cc2)csc1=S)c1ccccc1 (centres undefined)
inactive: SK-MEL-5 14.9 µM | DU-145 49.4 µM | OVCAR-4 38.5 µM | MOLT-4 7.62 µM | Malme-3M 14.6 µM | KM12 26.5 µM | U-251 21.2 µM | SNB-19 35.6 µM | NCI-H522 12.4 µM | SF-295 13.9 µM | PC-3 27.3 µM | HL-60 7.18 µM | MDA-MB-231 68.9 µM | TK-10 83.4 µM | RPMI-8226 31.8 µM | SF-268 34 µM

O=C(Nc1cccc([N+](=O)[O-])c1)C(=O)C(C(=O)c1ccccc1F)C1OC(=O)C2C=CC=CC21 (centres undefined)
inactive: SK-MEL-5 73.1 µM | DMS-273 31.7 µM | OVCAR-4 47.2 µM | MOLT-4 32 µM | KM12 27.3 µM | U-251 22.3 µM | SNB-19 29.9 µM | XF498 40.3 µM | NCI-H522 18.9 µM | SF-295 43.9 µM | HL-60 20 µM | TK-10 > 100 µM | LXFL 529 30.5 µM | RPMI-8226 23.8 µM | SF-268 19.7 µM

O=Nn1c2ccccc2c2cc([N+](=O)[O-])ccc21
inactive: SK-MEL-5 30.5 µM | DU-145 14.3 µM | OVCAR-4 16.8 µM | MOLT-4 14.1 µM | Malme-3M 12.9 µM | KM12 17.5 µM | U-251 16.4 µM | SNB-19 20.7 µM | NCI-H522 10.9 µM | SF-295 15.2 µM | PC-3 18.4 µM | HL-60 > 100 µM | MDA-MB-231 18.9 µM | TK-10 15.4 µM | RPMI-8226 13.3 µM | SF-268 12.7 µM

CC1(C)N=C(/C(Cl)=[N+](/[O-])C(=O)c2ccc(Cl)cc2)C(C)(C)N1O
inactive: SK-MEL-5 20 µM | DU-145 > 100 µM | OVCAR-4 26.4 µM | MOLT-4 > 10 µM | Malme-3M 17.7 µM | KM12 45.3 µM | U-251 26.4 µM | SNB-19 > 100 µM | SF-295 56 µM | PC-3 21.3 µM | HL-60 18.5 µM | MDA-MB-231 21.8 µM | TK-10 19.8 µM | RPMI-8226 26.5 µM | SF-268 29.4 µM

Oc1nc2ccccc2c2oc3ccccc3c12
inactive: SK-MEL-5 > 100 µM | DU-145 > 100 µM | OVCAR-4 > 100 µM | MOLT-4 > 100 µM | Malme-3M > 100 µM | KM12 > 100 µM | U-251 > 100 µM | SNB-19 > 100 µM | NCI-H522 > 100 µM | SF-295 > 100 µM | PC-3 > 100 µM | MDA-MB-231 83.8 µM | TK-10 > 100 µM | SF-268 > 100 µM

COc1cc([N+](=O)[O-])ccc1N1C(=O)C2c3[nH]c4ccccc4c3C3CCC(C(C)(C)C)CC3C2C1=O (centres undefined)
inactive: SK-MEL-5 40.9 µM | DU-145 > 100 µM | OVCAR-4 17.2 µM | MOLT-4 > 100 µM | Malme-3M > 100 µM | KM12 > 100 µM | U-251 9.79 µM | NCI-H522 42.4 µM | PC-3 38.6 µM | HL-60 > 100 µM | MDA-MB-231 14.7 µM | TK-10 > 100 µM | RPMI-8226 > 100 µM

CNC(=O)OC(C)CN1c2ccccc2Sc2ccc(Cl)cc21 (centres undefined)
inactive: SK-MEL-5 > 10 µM | DU-145 > 10 µM | OVCAR-4 > 10 µM | MOLT-4 > 10 µM | Malme-3M > 10 µM | U-251 > 10 µM | SNB-19 > 10 µM | NCI-H522 > 10 µM | SF-295 > 10 µM | PC-3 > 10 µM | HL-60 > 10 µM | MDA-MB-231 > 10 µM | TK-10 > 10 µM | RPMI-8226 > 10 µM | SF-268 > 10 µM

COc1ccc(/C(Cl)=C(\CN(C)C)c2ccc(OC)c(OC)c2)cc1OC
inactive: SK-MEL-5 > 100 µM | DMS-273 > 100 µM | MOLT-4 > 100 µM | Malme-3M > 100 µM | U-251 > 100 µM | SNB-19 > 100 µM | XF498 19.8 µM | NCI-H522 > 100 µM | SF-295 > 100 µM | HL-60 21.2 µM | TK-10 > 100 µM | LXFL 529 > 100 µM | RPMI-8226 > 100 µM | SF-268 > 100 µM
